Experimental data published in patent US9050345B2, “Pyrrolotriazines as potassium ion channel inhibitors” (BRISTOL-MYERS SQUIBB COMPANY, priority 2013, dated 2015).

Biological target: T1, human KV 1.5 (IKur) (Homo sapiens, UniProt P22460)
T1 construct: expressed in transfected cells
Experiment: block of IKur current in patch clamped L-929 cells expressing human Kv1.5
Type: cell-based
Conditions: 0.3 μM; patch clamped mammalian L-929 cells stably expressing human Kv1.5
Text: Assays to determine the degree of activity of a compound as an IKur inhibitor are well known in the art and are described in references such as J. Gen. Physiol., 101(4):513-543 (April 1993), and Br. J. Pharmacol., 115(2):267-274 (May 1995).
Synders, D. J. et al., “A rapidly activating and slowly inactivating potassium channel cloned from human heart: functional analysis after stable mammalian cell culture expression”, J. Gen. Physiol., 101:513-543 (1993). • 2. Zhou, Z. et al., “Block of HERG potassium channels by the antihistamine astemizole and its metabolites desmethylastemizole and norastemizole”, J. Cardiovasc. Electrophysiol., 10(6):836-843 (1999).

T1 sequence (P22460 whole entry): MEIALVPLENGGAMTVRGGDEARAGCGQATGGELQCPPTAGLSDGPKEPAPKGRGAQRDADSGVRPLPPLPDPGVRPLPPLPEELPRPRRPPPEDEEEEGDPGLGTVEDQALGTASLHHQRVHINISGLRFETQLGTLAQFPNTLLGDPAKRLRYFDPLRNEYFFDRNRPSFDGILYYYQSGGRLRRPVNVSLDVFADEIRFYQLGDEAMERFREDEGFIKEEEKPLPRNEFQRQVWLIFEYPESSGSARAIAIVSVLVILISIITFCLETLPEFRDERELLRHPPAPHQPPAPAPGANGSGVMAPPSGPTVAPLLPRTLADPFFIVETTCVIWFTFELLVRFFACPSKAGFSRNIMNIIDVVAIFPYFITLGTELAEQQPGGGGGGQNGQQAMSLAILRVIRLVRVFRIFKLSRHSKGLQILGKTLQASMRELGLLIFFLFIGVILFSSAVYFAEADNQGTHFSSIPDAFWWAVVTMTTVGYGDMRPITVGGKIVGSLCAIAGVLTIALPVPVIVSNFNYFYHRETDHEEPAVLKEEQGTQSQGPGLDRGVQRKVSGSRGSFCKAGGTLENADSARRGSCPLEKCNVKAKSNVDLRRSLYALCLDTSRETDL

SMILES	KV1_5% Inh L929 @0.3 μM
NS(=O)(=O)c1cncc(-c2nc(NC(CO)c3ccccn3)c3c(-c4ccccc4)ccn3n2)c1 (centres unmarked) [Example 33, 5-(4-((2-Hydroxy-1-(pyridin-2-yl)ethyl)amino)-5-phenylpyrrolo[2,1-f][1,2,4]triazin-2-yl)pyridine-3-sulfonamide]	95.01%
NS(=O)(=O)CCc1cncc(-c2nc(NCc3ccccn3)c3c(-c4ccccc4)ccn3n2)c1 [Example 38, 2-(5-(5-Phenyl-4-(pyridin-2-ylmethylamino)pyrrolo[1,2-f][1,2,4]triazin-2-yl)pyridin-3-yl)ethanesulfonamide]	97.45%

Same assay, conditions: L929, 0.3 μM; patch clamped mammalian L-929 cells stably expressing human Kv1.5; read-out: KV1_5% Inh L929 @0.3 μM

inhibition at 0.3 µM	SMILES
88.2%	CCOC(=O)CS(=O)(=O)Nc1cncc(-c2nc(NCc3ccccn3)c3c(-c4ccccc4)ccn3n2)c1 [Example 51, ethyl 2-(N-(5-(5-phenyl-4-(pyridin-2-ylmethylamino)pyrrolo[1,2-f][1,2,4]triazin-2-yl)pyridin-3-yl)sulfamoyl)acetate]
96.1%	NC(=O)CC(=O)Nc1cncc(-c2nc(NCc3ccccn3)c3c(-c4ccccc4)ccn3n2)c1 [Example 52, N1-(5-(5-phenyl-4-(pyridin-2-ylmethylamino)pyrrolo[1,2-f][1,2,4]triazin-2-yl)pyridin-3-yl)malonamide]
98.1%	CC(=O)Nc1ccccc1-c1nc(NCc2ccccn2)c2c(-c3ccccc3)ccn2n1 [Example 53, N-(2-(5-phenyl-4-(pyridin-2-ylmethylamino)pyrrolo[1,2-f][1,2,4]triazin-2-yl)phenyl) acetamide]
90.2%	CC(=O)Nc1ccc(-c2nc(NCc3ccccn3)c3c(-c4ccccc4)ccn3n2)cn1 [Example 54, N-(5-(5-phenyl-4-(pyridin-2-ylmethylamino)pyrrolo[1,2-f][1,2,4]triazin-2-yl)pyridin-2-yl)acetamide]
20.6%	NC(=O)CS(=O)(=O)Nc1cncc(-c2nc(NCc3ccccn3)c3c(-c4ccccc4)ccn3n2)c1 [Example 55, 2-(N-(5-(5-phenyl-4-(pyridin-2-ylmethylamino)pyrrolo[1,2-f][1,2,4]triazin-2-yl)pyridin-3-yl)sulfamoyl)acetamide]
93.8%	O=S(=O)(Nc1cncc(-c2nc(NCc3ccccn3)c3c(-c4ccccc4)ccn3n2)c1)C1CC1 [Example 56, N-(5-(5-phenyl-4-(pyridin-2-ylmethylamino)pyrrolo[1,2-f][1,2,4]triazin-2-yl)pyridin-3-yl) cyclopropanesulfonamide]
95.5%	CCCS(=O)(=O)Nc1cncc(-c2nc(NCc3ccccn3)c3c(-c4ccccc4)ccn3n2)c1 [Example 57, N-(5-(5-phenyl-4-(pyridin-2-ylmethylamino)pyrrolo[1,2-f][1,2,4]triazin-2-yl)pyridin-3-yl) propane-1-sulfonamide]
96.1%	CC(C)CS(=O)(=O)Nc1cncc(-c2nc(NCc3ccccn3)c3c(-c4ccccc4)ccn3n2)c1 [Example 58, 2-methyl-N-(5-(5-phenyl-4-(pyridin-2-ylmethylamino)pyrrolo [1,2-f][1,2,4]triazin-2-yl)pyridin-3-yl) propane-1-sulfonamide]
97%	CCOC(=O)Nc1cncc(-c2nc(NCc3ccccn3)c3c(-c4ccccc4)ccn3n2)c1 [Example 59, ethyl 5-(5-phenyl-4-(pyridin-2-ylmethylamino)pyrrolo[1,2-f][1,2,4]triazin-2-yl)pyridin-3-ylcarbamate]

More lines, now with the values behind:

SMILES	inhibition at 0.3 µM
Cc1nc(CNc2nc(-c3cncc(S(N)(=O)=O)c3)nn3ccc(-c4ccccc4)c23)cs1 [Example 32, 5-(4-((2-Methylthiazol-4-yl)methylamino)-5-phenylpyrrolo[1,2-f][1,2,4]triazin-2-yl)pyridine-3-sulfonamide]	99.3%
NS(=O)(=O)c1cncc(-c2nc(NC(CO)c3ccccn3)c3c(-c4ccccc4)ccn3n2)c1 (centres unmarked) [Example 33, 5-(4-((2-Hydroxy-1-(pyridin-2-yl)ethyl)amino)-5-phenylpyrrolo[2,1-f][1,2,4]triazin-2-yl)pyridine-3-sulfonamide]	87.8%
CC(C)(C)OC(=O)NC1(c2nc(NCc3ccccn3)c3c(-c4ccccc4)ccn3n2)CC1 [Example 34, tert-Butyl 1-(5-phenyl-4-(pyridin-2-ylmethylamino)pyrrolo[1,2-f][1,2,4]triazin-2-yl)cyclopropylcarbamate]	97.3%
COC(=O)NC1(c2nc(NCc3ccccn3)c3c(-c4ccccc4)ccn3n2)CC1 [Example 35, Methyl 1-(5-phenyl-4-(pyridin-2-ylmethylamino)pyrrolo[1,2-f][1,2,4]triazin-2-yl)cyclopropylcarbamate]	92.8%
CC(=O)NC1(c2nc(NCc3ccccn3)c3c(-c4ccccc4)ccn3n2)CC1 [Example 36, N-(1-(5-Phenyl-4-(pyridin-2-ylmethylamino)pyrrolo[1,2-f][1,2,4]triazin-2-yl)cyclopropyl)acetamide]	46%
CS(=O)(=O)NC1(c2nc(NCc3ccccn3)c3c(-c4ccccc4)ccn3n2)CC1 [Example 37, N-(1-(5-Phenyl-4-(pyridin-2-ylmethylamino)pyrrolo[1,2-f][1,2,4]triazin-2-yl)cyclopropyl)methanesulfonamide]	98.6%
NS(=O)(=O)c1cc(-c2nc(NCc3ccccn3)c3c(-c4ccccc4)ccn3n2)cnc1C(F)F [Example 39, 2-(Difluoromethyl)-5-(5-phenyl-4-(pyridin-2-ylmethylamino)pyrrolo[1,2-f][1,2,4]triazin-2-yl)pyridine-3-sulfonamide]	97.1%
COc1ncc(-c2nc(N3Cc4cccnc4C3)c3c(-c4ccccc4)ccn3n2)cc1S(N)(=O)=O [Example 40, 2-Methoxy-5-(5-phenyl-4-(5H-pyrrolo[3,4-b]pyridin-6(7H)-yl)pyrrolo[1,2-f][1,2,4]triazin-2-yl)pyridine-3-sulfonamide]	40.4%
CC(C)Oc1ncc(-c2nc(NCc3ccccn3)c3c(-c4ccccc4)ccn3n2)cc1S(N)(=O)=O [Example 41, 2-Isopropoxy-5-(5-phenyl-4-((pyridin-2-ylmethyl)amino)pyrrolo[2,1-f][1,2,4]triazin-2-yl)pyridine-3-sulfonamide]	95.1%
CC(=O)Nc1cncc(-c2nc(NCc3ccccn3)c3c(-c4ccccc4)ccn3n2)n1 [Example 42, N-(6-(5-Phenyl-4-(pyridin-2-ylmethylamino)pyrrolo[1,2-f][1,2,4]triazin-2-yl)pyrazin-2-yl)acetamide]	99.4%
COC(=O)C(CS(N)(=O)=O)NC(=O)c1cncc(-c2nc(NCc3ccccc3)c3c(-c4ccccc4)ccn3n2)c1 (centres unmarked) [Example 45, Methyl 2-(5-(4-(benzylamino)-5-phenylpyrrolo[2,1-f][1,2,4]triazin-2-yl)nicotinamido)-3-sulfamoylpropanoate]	90.1%
CC(=O)Nc1cncc(-c2nc(NCc3ccccn3)c3c(-c4ccccc4)ccn3n2)c1 [Example 47, N-(5-(5-phenyl-4-(pyridin-2-ylmethylamino)pyrrolo[1,2-f][1,2,4]triazin-2-yl)pyridin-3-yl)acetamide]	94.8%
CC(=O)Nc1cccc(-c2nc(NCc3ccccn3)c3c(-c4ccccc4)ccn3n2)c1 [Example 48, N-(3-(5-phenyl-4-(pyridin-2-ylmethylamino)pyrrolo[1,2-f][1,2,4]triazin-2-yl)phenyl) acetamide]	96.6%
NS(=O)(=O)c1cc(-c2nc(NCc3ccccn3)c3c(-c4ccccc4)ccn3n2)cnc1O [Example 49, 2-hydroxy-5-(5-phenyl-4-(pyridin-2-ylmethylamino)pyrrolo[1,2-f][1,2,4]triazin-2-yl)pyridine-3-sulfonamide]	84.9%
NS(=O)(=O)Nc1cccc(-c2nc(NCc3ccccn3)c3c(-c4ccccc4)ccn3n2)c1 [Example 50]	97.8%
